Test results: US9957546B2, “Vivo detection of phospholipase activation” (THE TRUSTEES OF THE UNIVERSITY OF PENNSYLVANIA, priority 2008, dated 2018)

Assays:
[1] = tested on: PC-PLC; conditions: Amplex Red, resorufin fluorescence
Source text: To validate the presence of PC-PLC activity in DU145 tumor xenografts, the Amplex Red PC-PLC assay kit (Molecular Probes) was used to measure PC-PLC activity in extracts of excised tumors.

[2] = molecular target: PC-PLC (Bacillus cereus, UniProt P09598)
Procedure: Phospholipase (0.5 to 5 units) are added to 1 μM fluorophore-BHQ in PtdCho vesicles_(MF=0.05) to yield a final volume of 100 μL. Initial velocities are measured as a function of enzyme concentration. For bulk kinetics, an enzyme concentration that gives a linear response is chosen. The lipid dispersions is diluted in buffer such that the fluorophore-BHQ concentration varies from 0.3-3 μM. The temperature is held at 37° C. and phospholipase added to a total volume of 100 μL. The released fluorescence is measured and the initial velocities recorded as a function of bulk lipid concentration. A Lineweaver-Burke plot of 1/V0 vs 1/[S] gives a straight line with […] and y intercept of 1/Vmax. For interfacial kinetics, lipid dispersions of fluorophore-BHQ and PtdCho are diluted in Triton X-100 with the total lipid concentration held at 20 μM. The ratios of fluorophore-BHQ to PtdCho are held constant, but varied relative to the MF of Triton with a total MF of fluorophore-BHQ of =0.01-0.05). Initial velocities are recorded as a function of concentration, and kinetic parameters are calculated.
Activity, in RFU/min/mg, was measured as a function of D609 concentration after the addition of 0.5 U PC-PLC (FIG. 2D).

[3] = Incorporation of Pyro-PL into PtdCho vesicles (self quenching/aggregation); assay type: physicochemical; conditions: 1 μM Pyro-PL, [PtdCho]>200 μM
Procedure: A measured amount of Pyro-PL-BHQ or Pyro-PL (ε=110,000 M^−1 cm^−1 at 410 nm) was combined with PtdCho (chicken egg, Avanti Polar Lipids, Inc., Alabaster, Ala.) in chloroform and dried under a stream of nitrogen.
In order to determine the mole fraction (MF) at which all fluorophore can be assumed to be completely incorporated and intercalated into the PtdCho vesicles, an experiment was conducted in which the concentration of PtdCho was varied while Pyro-PL concentration was held constant at 1 μM (FIG. 4A). The fluorescence intensity increases as the Pyro-PL disperses into the PtdCho vesicles. The fluorescence plateaus at the point at which aggregation is negligible.

[4] = In vivo distribution of Pyro-PL (Maestro spectral deconvolution, ex vivo IVIS organ imaging); design: species or system mice
Procedure: Methods for separation of probe fluorescence and autofluorescence have been developed that result in a more accurate detection of in vivo probe fluorescence. In FIG. 11, mice injected with the permanently fluorescent Pyro-PL are imaged with the CRI Maestro System, and the resulting images resolved into probe and autofluorescence on the basis of emission spectrum deconvolution. These images confirm that Pyro-PL localizes in the tumor within minutes, and persists for about 3 hours, consistent with FIGS. 12A and 13A. By 2 hours, the probe is also being removed from circulation, with concentration first in the liver, and then in the intestine for excretion in the stool.

[5] = Tolerability of Pyro-PL in mice; assay type: in vivo
[6] = tested on: DU145 prostate cells; assay: Cell uptake and in situ activation, laser confocal microscopy; assay type: cell-based, human; conditions: 10 mM PB, 6 h
[7] = Quenching of Pyro fluorescence (fluorescence emission spectra); assay type: physicochemical
Source text: In Pyro-PL-BHQ, BHQ acts as an effective quencher of Pyro fluorescence, reducing the fluorescence emission relative to Pyro-PL between 25-fold (for λex=675, λem=725 nm) and 45-fold (for λex=418, λem=695 nm) (FIG. 14).

Sequence of PC-PLC (Bacillus cereus, UniProt P09598) (P09598 39-283 limits assumed): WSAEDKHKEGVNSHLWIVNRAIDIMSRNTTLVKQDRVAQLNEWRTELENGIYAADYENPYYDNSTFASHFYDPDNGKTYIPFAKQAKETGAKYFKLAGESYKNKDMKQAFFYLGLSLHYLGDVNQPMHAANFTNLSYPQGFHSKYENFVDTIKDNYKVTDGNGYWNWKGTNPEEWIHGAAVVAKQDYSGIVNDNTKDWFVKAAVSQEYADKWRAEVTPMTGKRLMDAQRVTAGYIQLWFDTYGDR

With `S=C([S-])OC1CC2CC1C1CCCC21.[K+]` (stereo not drawn) [D609] the “PC-PLC activity in tumor extracts as a function of D609 concentration” value [1] was “decrease as a function of D609 concentration”, the “Inhibition of PC-PLC hydrolysis of Pyro-PL-BHQ at 500 μM D609” value ([2]; 500 μM D609, 0.5 U PC-PLC) was “Complete inhibition” and the “Fluorescence release from Pyro-PL-BHQ/PtdCho vesicles in presence of inhibitor” value ([2]; FIG. 3A) was “inhibited”. It also gave an IC50 ([2]; read-out: IC50 of inhibition of PC-PLC activity toward Pyro-PL-BHQ, 1 μM Pyro-PL-BHQ, MF 0.003 in egg-PtdCho dispersions, 0.5 U PC-PLC) of 34 ± 8 µM and a Ki ([2]; read-out: Ki (x-intercept of Km(app)/Vmax(app) vs. D609), Lineweaver-Burke plot of inhibition using 8, 50, 100 μM D609) of 250 µM.
In the case of `C=Cc1c(C)c2cc3nc(c4c5[nH]c(cc6nc(cc1[nH]2)C(C)=C6CC)c(C)c5C(=O)C4)C(CCC(=O)OC(COC(=O)CCCCCCCCCCCCCCC)COP(=O)(O)OCCN)C3C` (stereo not drawn) [Pyro-PL], the “Pyro-PL mole fraction (MF) at which fluorescence plateaus (aggregation negligible)” value [3] is reported as less than 0.005, the “organ fluorescence at 2 h” value ([4]; 2 h) is reported as “majority of the fluorescence appears in the liver” and the “organ fluorescence ex vivo at 24 h” value ([4]; IVIS, 24 h) is reported as “major fluorescence persisted in the liver, kidney and digestive tract”. For the same molecule, the “time of accumulation in the tumor” value ([4]; Maestro system) was no more than 10 min and the tolerability [5] was “well tolerated by mice”.
In the case of phenylbutyrate [PB], the “effect on Pyro-PL-BHQ fluorescence in cells” value [6] is reported as “fluorescence is increased”.
In the case of `C=Cc1c(C)c2cc3nc(c4c5[nH]c(cc6nc(cc1[nH]2)C(C)=C6CC)c(C)c5C(=O)C4)C(CCC(=O)NCCCCCC(=O)OCC(COP(=O)([O-])OCC[N+](C)(C)C)OC(=O)CCCCCNC(=O)CCC1c2nc(cc4[nH]c(cc5nc(cc6[nH]c7c2CC(=O)c7c6C)C(CC)=C5C)c(C=C)c4C)C1C)C3C` (stereo not drawn) [PyroPyro-PL], the “quenching efficiency (second Pyro as acceptor)” value [7] is reported as roughly 4 fold.
